Assays:
Experiment in all cases: Nanosyn kinase profiling
Assay type in all cases: biochemical
Details in all cases: read-out: Percentage inhibition; for inhibition at 0.1 µM: 0.1 µM inhibitor; for inhibition at 1 µM: 1 µM inhibitor
DCAMKL2 = target: T1, DCAMKL2 (Homo sapiens, UniProt Q8N568)
T1 construct: purchased Nanosyn (enzymatic panel); SGC in-house recombinant human kinases (DSF panel); Invitrogen (ALK1-6)
T1 sequence (Q8N568 1-766): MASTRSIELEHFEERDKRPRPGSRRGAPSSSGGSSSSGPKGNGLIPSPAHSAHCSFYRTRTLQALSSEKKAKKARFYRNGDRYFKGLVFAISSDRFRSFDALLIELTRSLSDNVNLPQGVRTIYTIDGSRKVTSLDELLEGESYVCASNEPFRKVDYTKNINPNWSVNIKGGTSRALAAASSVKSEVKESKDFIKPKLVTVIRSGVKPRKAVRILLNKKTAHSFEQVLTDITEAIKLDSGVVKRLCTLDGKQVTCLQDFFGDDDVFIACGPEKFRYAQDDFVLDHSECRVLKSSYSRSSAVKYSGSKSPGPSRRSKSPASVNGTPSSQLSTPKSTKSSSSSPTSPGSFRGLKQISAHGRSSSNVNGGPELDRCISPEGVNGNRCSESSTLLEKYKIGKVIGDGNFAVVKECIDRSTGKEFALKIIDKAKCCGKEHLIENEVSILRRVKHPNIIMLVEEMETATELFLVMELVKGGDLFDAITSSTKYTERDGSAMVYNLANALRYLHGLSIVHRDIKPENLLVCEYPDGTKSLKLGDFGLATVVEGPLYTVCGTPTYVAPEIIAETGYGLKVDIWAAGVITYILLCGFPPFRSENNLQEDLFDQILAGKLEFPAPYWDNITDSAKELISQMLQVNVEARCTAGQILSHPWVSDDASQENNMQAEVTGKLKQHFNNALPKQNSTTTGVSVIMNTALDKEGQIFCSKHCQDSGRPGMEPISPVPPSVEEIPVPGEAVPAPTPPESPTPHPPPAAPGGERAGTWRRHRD
In short: (§1)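 Percent inhibition of each kinase was measured with the inhibitor at 0.1 µM and at 1 µM, as part of a 200-kinase human selectivity panel.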

PDGFRβ = target: T2, PDGFRβ (Homo sapiens, UniProt P09619)
T2 construct: purchased Nanosyn (enzymatic panel); SGC in-house recombinant human kinases (DSF panel); Invitrogen (ALK1-6)
In short: as §1

SPHK2 = target: T3, SPHK2 (Homo sapiens, UniProt Q9NRA0)
T3 construct: purchased Nanosyn (enzymatic panel); SGC in-house recombinant human kinases (DSF panel); Invitrogen (ALK1-6)
T3 sequence (Q9NRA0 1-654): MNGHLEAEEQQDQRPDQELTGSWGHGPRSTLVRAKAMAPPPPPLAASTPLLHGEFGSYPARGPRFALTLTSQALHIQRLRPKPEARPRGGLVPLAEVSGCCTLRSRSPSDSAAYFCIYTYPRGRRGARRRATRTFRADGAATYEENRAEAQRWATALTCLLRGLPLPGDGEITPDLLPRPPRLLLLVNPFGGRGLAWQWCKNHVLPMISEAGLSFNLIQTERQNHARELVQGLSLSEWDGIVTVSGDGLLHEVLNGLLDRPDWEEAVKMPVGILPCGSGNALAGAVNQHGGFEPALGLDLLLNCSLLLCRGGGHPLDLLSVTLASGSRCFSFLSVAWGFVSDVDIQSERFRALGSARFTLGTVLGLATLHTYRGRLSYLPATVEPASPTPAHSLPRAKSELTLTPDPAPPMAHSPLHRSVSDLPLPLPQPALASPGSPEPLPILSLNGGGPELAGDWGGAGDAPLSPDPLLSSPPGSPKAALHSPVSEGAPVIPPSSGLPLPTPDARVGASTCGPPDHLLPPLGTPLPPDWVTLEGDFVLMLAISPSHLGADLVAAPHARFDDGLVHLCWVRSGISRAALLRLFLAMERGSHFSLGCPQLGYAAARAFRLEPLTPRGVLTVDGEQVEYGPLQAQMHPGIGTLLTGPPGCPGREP
In short: as §1

MAPKAPK2 = target: T4, MAPKAPK2 (Homo sapiens, UniProt P49137)
T4 construct: purchased Nanosyn (enzymatic panel); SGC in-house recombinant human kinases (DSF panel); Invitrogen (ALK1-6)
In short: as §1

EPHA2 = target: T5, EPHA2 (Homo sapiens, UniProt P29317)
T5 construct: purchased Nanosyn (enzymatic panel); SGC in-house recombinant human kinases (DSF panel); Invitrogen (ALK1-6)
In short: as §1

MRCKα = target: T6, MRCKα (Homo sapiens, UniProt Q5VT25)
T6 construct: purchased Nanosyn (enzymatic panel); SGC in-house recombinant human kinases (DSF panel); Invitrogen (ALK1-6)
In short: as §1

BRSK2 = target: T7, BRSK2 (Homo sapiens, UniProt Q8IWQ3)
T7 construct: purchased Nanosyn (enzymatic panel); SGC in-house recombinant human kinases (DSF panel); Invitrogen (ALK1-6)
T7 sequence (Q8IWQ3 1-736): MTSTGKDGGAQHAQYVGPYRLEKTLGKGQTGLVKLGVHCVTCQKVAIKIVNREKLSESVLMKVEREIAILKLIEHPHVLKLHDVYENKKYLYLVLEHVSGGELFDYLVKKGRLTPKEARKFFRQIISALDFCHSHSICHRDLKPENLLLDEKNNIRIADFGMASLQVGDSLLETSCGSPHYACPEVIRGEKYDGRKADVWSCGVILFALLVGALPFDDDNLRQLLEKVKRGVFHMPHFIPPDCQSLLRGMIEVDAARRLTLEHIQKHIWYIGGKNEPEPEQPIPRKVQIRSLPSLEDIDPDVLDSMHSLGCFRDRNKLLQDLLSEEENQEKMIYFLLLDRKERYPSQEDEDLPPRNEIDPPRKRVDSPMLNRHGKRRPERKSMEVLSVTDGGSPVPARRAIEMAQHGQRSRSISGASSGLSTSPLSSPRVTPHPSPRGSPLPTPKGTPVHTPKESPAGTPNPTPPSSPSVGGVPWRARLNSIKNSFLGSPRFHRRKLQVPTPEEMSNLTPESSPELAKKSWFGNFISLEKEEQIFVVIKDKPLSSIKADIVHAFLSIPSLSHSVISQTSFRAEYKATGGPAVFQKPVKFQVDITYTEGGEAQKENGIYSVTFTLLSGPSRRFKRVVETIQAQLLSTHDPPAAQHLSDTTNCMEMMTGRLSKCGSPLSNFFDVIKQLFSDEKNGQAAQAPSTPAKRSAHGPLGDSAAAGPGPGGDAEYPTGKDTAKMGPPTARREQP
In short: as §1

CDK1/cycB = target: T8, CDK1/cycB (Homo sapiens, UniProt P06493)
T8 construct: purchased Nanosyn (enzymatic panel); SGC in-house recombinant human kinases (DSF panel); Invitrogen (ALK1-6)
In short: as §1

TRKC = target: T9, TRKC (Homo sapiens, UniProt Q16288)
T9 construct: purchased Nanosyn (enzymatic panel); SGC in-house recombinant human kinases (DSF panel); Invitrogen (ALK1-6)
In short: as §1

AURKB = target: T10, AURKB (Homo sapiens, UniProt Q96GD4)
T10 construct: purchased Nanosyn (enzymatic panel); SGC in-house recombinant human kinases (DSF panel); Invitrogen (ALK1-6)
In short: as §1

T10 sequence (Q96GD4 whole entry): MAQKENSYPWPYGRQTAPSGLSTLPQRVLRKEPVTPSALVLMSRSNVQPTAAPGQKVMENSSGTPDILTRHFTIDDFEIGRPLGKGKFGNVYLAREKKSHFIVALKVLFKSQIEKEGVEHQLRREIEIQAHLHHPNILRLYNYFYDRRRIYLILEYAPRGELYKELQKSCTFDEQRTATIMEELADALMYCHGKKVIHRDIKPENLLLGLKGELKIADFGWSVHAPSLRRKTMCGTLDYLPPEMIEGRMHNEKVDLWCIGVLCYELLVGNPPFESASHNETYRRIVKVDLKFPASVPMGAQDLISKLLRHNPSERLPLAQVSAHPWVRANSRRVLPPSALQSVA
T4 sequence (P49137 whole entry): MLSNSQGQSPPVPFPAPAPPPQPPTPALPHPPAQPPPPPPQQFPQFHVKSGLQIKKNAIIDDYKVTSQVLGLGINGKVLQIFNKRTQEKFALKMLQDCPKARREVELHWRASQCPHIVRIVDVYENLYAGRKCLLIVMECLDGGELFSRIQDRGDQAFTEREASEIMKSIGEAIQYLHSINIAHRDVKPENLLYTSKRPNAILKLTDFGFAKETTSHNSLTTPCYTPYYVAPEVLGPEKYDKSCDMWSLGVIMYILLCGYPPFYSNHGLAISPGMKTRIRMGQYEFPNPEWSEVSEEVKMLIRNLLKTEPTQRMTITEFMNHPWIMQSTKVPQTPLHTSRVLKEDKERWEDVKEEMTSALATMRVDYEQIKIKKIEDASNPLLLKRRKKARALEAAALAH
T8 sequence (P06493 whole entry): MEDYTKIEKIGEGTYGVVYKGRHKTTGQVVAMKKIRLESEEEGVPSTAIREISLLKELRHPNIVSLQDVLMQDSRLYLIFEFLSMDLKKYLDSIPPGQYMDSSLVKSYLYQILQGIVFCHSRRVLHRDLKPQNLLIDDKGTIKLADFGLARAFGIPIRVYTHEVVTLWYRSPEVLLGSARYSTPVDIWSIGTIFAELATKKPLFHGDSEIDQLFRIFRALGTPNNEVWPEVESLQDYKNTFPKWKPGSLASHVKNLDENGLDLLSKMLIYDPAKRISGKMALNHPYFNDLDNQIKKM
T8 sequence (P14635 whole entry partner): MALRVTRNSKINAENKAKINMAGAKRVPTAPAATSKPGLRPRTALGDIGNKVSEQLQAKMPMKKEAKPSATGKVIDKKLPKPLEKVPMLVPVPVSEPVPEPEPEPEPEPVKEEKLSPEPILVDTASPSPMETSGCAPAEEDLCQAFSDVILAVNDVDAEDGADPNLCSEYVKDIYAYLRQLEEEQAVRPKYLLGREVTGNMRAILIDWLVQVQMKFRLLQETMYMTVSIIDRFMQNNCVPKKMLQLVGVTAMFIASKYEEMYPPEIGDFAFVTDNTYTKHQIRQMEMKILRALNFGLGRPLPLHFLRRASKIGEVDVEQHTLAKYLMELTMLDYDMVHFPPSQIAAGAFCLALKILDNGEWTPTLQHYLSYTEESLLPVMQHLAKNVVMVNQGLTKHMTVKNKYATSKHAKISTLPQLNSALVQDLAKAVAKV
T5 sequence (P29317 24-976): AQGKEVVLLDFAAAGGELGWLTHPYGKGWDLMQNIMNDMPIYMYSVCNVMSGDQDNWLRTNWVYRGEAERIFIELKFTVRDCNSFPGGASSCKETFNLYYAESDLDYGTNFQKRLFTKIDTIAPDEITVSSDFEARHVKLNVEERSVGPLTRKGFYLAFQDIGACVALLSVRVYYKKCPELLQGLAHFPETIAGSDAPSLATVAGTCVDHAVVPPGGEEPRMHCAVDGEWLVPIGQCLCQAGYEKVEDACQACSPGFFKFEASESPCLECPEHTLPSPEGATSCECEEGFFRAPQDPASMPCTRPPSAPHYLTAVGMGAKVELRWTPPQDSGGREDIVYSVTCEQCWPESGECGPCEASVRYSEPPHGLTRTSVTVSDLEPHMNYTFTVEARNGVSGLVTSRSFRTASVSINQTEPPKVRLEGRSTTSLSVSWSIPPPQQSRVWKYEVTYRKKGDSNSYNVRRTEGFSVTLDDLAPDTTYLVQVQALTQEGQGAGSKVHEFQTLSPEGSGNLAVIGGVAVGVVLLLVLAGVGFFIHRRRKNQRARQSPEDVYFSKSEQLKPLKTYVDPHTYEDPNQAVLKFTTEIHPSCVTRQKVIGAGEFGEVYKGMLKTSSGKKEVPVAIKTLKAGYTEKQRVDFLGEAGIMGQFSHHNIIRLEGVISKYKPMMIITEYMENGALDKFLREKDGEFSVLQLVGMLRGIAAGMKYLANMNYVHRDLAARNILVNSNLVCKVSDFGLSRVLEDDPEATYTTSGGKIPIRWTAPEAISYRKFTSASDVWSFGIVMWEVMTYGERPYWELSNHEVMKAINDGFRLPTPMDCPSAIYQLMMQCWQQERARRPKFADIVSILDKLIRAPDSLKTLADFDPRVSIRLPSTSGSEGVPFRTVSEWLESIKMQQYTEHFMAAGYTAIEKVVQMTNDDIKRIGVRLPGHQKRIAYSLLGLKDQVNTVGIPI
T2 sequence (P09619 33-1106): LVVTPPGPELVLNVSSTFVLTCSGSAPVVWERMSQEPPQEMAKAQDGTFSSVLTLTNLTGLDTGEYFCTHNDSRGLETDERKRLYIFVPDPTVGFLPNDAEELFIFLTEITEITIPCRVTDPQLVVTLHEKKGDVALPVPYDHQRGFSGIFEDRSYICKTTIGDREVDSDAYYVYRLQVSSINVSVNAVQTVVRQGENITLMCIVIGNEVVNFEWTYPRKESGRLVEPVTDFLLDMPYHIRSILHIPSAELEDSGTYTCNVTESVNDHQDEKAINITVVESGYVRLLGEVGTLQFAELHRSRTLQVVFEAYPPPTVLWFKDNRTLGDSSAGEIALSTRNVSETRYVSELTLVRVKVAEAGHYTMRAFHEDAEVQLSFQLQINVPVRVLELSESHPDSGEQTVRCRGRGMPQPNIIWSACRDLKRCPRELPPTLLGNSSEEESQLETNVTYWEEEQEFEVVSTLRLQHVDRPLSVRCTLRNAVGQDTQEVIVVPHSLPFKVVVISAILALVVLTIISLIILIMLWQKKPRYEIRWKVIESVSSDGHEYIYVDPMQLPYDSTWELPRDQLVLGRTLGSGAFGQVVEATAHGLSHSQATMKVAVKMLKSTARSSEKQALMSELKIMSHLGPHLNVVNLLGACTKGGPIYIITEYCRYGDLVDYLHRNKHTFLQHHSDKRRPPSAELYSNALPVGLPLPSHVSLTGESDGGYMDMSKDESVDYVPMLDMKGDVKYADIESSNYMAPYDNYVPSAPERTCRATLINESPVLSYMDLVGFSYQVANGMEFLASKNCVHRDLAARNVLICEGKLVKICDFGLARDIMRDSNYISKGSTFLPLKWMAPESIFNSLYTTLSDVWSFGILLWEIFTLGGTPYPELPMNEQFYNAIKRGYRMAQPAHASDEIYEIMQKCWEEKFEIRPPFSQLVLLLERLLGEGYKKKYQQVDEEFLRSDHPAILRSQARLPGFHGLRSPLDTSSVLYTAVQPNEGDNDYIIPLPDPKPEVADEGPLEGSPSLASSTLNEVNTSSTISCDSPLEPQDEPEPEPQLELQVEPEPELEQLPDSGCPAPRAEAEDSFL
T9 sequence (Q16288 32-839): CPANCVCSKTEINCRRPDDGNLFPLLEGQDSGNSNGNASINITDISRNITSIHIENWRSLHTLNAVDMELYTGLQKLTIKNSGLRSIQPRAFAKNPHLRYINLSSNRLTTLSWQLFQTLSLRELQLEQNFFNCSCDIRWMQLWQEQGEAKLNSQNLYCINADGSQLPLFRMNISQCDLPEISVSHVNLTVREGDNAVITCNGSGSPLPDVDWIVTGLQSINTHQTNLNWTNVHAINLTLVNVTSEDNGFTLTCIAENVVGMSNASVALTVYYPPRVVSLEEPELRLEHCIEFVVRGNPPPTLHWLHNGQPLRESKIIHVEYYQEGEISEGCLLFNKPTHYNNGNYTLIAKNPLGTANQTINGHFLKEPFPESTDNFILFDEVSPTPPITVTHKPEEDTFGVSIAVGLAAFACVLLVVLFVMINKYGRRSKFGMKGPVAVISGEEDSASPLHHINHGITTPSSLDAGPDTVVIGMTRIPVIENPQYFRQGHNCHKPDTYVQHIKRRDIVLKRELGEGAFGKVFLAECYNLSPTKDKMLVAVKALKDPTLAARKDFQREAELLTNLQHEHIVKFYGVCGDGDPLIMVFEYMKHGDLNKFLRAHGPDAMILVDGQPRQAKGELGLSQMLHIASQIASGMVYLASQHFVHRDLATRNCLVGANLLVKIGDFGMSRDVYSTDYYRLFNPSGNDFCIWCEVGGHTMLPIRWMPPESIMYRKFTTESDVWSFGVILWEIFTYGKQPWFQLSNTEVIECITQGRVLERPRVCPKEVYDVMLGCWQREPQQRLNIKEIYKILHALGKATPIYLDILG

SMILES | inhibition at 0.1 µM (DCAMKL2) [%] | inhibition at 1 µM (DCAMKL2) [%] | inhibition at 0.1 µM (PDGFRβ) [%] | inhibition at 1 µM (PDGFRβ) [%] | inhibition at 0.1 µM (SPHK2) [%] | inhibition at 1 µM (SPHK2) [%] | inhibition at 0.1 µM (MAPKAPK2) [%] | inhibition at 1 µM (MAPKAPK2) [%] | inhibition at 0.1 µM (EPHA2) [%] | inhibition at 1 µM (EPHA2) [%] | inhibition at 0.1 µM (MRCKα) [%] | inhibition at 1 µM (MRCKα) [%] | inhibition at 0.1 µM (BRSK2) [%] | inhibition at 1 µM (BRSK2) [%] | inhibition at 0.1 µM (CDK1/cycB) [%] | inhibition at 1 µM (CDK1/cycB) [%] | inhibition at 0.1 µM (TRKC) [%] | inhibition at 1 µM (TRKC) [%] | inhibition at 0.1 µM (AURKB) [%] | inhibition at 1 µM (AURKB) [%]
COc1cc(-c2cc(-c3cccc(O)c3)cnc2N)cc(OC)c1OC [K02288, 3-[6-amino-5-(3,4,5-trimethoxy-phenyl)-pyridin-3-yl]-phenol] | -2 | 2.3 | 7.7 | 43 | -2 | 4.4 | -2 | -1 | -2 | 3 | 2 | 6.9 | 0.9 | 2.7 | 1 | 1.5 | 2.7 | 2.4 | 0.3 | 1.5
c1ccc2c(-c3cnn4cc(-c5ccc(N6CCNCC6)cc5)cnc34)ccnc2c1 [LDN-193189] | 0.8 | 3.4 | 39 | 75 | -1 | -3 | 0.7 | 0 | -2 | -3 | 0.8 | 6.8 | 4.4 | 22 | 0.5 | 5 | 1.6 | 3.9 | 2.3 | 15

Reference: PMC3639963, “A New Class of Small Molecule Inhibitor of BMP Signaling” (PLoS ONE, 2013)
